Measured values: ChEMBL document CHEMBL1201862, “PubChem BioAssay data set” (2004)
Calls of active or inactive are those of the source.

Key:
[1] = target: Albumin (Bos taurus, UniProt P02769); assay: Counterscreen for inhibitors of T-cell receptor (TCR)-CD3 interaction: Fluorescence-based biochemical high throughput dose response assay to identify inhibitors of T-cell receptor (TCR)-CD3 interaction using a TAMRA-labeled BSA probe.; type: functional
[2] = target: Cytochrome P450 2C19 (Homo sapiens, UniProt P33261); assay: Cytochrome panel assay with activity outcomes. Panel member name: p450-cyp2c19 Compounds with AC50 equal or less than 10 uM are considered active; type: functional; conditions: read-out: AC50
[3] = cells; type: functional, cell-based
[4] = target: T1, Trace amine-associated receptor 1 (Homo sapiens, UniProt Q96RJ0); assay: Fluorescence-based cell-based high throughput dose response assay to identify agonists of the human trace amine associated receptor 1 (TAAR1).; type: functional
T1 sequence (Q96RJ0 whole entry): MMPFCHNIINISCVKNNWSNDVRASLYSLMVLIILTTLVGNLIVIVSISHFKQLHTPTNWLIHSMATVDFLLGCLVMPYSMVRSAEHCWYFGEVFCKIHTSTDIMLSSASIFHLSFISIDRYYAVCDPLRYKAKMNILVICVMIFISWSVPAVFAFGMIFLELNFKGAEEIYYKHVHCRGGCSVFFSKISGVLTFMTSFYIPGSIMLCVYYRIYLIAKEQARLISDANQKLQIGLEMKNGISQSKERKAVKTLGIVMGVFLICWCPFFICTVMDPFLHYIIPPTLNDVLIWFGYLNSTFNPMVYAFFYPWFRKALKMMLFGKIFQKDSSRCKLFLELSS

[5] = target: T1, Trace amine-associated receptor 1; assay: Counterscreen for agonists of the human trace amine associated receptor 1 (hTAAR1): Fluorescence-based cell-based high throughput dose response assay to identify hTAAR1 agonist that also desensitize TAAR1 receptor response.; type: functional
[6] = cells; type: functional, cell-based; remark: listed apart in the source
[7] = target: Cytochrome P450 2C9 (Homo sapiens, UniProt P11712)
[8] = A549 cell cytotoxicity, dose response, cytotoxicity control, plate reader, cherry-pick, antagonist series (AID 743412); type: functional, cell-based
[9] = HepG2 cell cytotoxicity, dose response, cytotoxicity control, plate reader, cherry-pick, antagonist series (AID 743416); type: functional, cell-based
[10] = LGR2 antagonists, dose response, cell-based, HEK293, CRE-luciferase reporter, cherry pick, set 2 (AID 743343); type: functional;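 note: transfected cells were stimulated with diluted bursicon conditioned medium after compound addition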
[11] = MC4R antagonists, dose response, counter-screen for LGR2 antagonist project, cell-based, plate reader, cherry pick (AID 743444); type: functional;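 note: transfected HEK 293 cells stimulated with alpha-MSH peptide; potency of inhibitors of the alpha-MSH evoked signal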
[12] = target: T2, Oxysterols receptor LXR-beta (Homo sapiens, UniProt P55055); type: functional, cell-based;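 note: Cell-based luminescence dose-response assay of agonist activity at LXR, run as a confirmatory counterscreen to a daf-12 agonist screen; HEK293 cells with Gal4-LXR fusion and GAL4-driven luciferase reporter; agonist potency from rising luciferase signal of a Gal4-LXR reporter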
T2 sequence (P55055 whole entry): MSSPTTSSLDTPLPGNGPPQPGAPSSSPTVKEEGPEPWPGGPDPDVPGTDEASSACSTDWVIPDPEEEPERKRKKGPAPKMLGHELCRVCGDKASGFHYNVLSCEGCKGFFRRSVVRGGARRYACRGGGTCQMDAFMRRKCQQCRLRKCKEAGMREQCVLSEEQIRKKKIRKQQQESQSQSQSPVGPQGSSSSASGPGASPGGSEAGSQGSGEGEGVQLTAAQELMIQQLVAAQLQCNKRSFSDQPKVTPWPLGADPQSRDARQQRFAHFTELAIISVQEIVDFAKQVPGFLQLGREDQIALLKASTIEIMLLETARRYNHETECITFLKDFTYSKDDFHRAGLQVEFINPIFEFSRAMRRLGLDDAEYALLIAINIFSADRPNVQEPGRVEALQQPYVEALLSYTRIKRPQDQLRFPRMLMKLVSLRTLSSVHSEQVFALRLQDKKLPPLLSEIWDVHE

[13] = HEK293 cell cytotoxicity, dose response, cytotoxicity control, plate reader, cherry-picked samples (AID 743446); type: functional, cell-based
[14] = cells
[15] = A375 melanoma cell viability loss, dose response, counter-screen for MITF inhibitor project, CellTiter-Glo luminescence, dry powder, set 4 (AID 624364); type: functional, cell-based; conditions: A-375;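 note: A375 melanoma cells are MITF independent so this is a counter screen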
[16] = A375 melanoma cell cytotoxicity, dose response, counter-screen for MITF inhibitor project, CellTiter-Glo luminescence, dry powder, set 2 (AID 624489); type: functional, cell-based; conditions: A-375;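 note: actives are compounds lowering A375 viability meaning general cytotoxicity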
[17] = target: T3, Aminopeptidase N (Plasmodium falciparum FcB1/Columbia, UniProt O96935); assay: P. falciparum M1AAP inhibitors, biochemical, fluorogenic H-Leu-NHMec substrate, 1536-well (AID 1445); parameters: species or system Plasmodium falciparum 3D7, 3D7
T3 sequence (O96935 whole entry): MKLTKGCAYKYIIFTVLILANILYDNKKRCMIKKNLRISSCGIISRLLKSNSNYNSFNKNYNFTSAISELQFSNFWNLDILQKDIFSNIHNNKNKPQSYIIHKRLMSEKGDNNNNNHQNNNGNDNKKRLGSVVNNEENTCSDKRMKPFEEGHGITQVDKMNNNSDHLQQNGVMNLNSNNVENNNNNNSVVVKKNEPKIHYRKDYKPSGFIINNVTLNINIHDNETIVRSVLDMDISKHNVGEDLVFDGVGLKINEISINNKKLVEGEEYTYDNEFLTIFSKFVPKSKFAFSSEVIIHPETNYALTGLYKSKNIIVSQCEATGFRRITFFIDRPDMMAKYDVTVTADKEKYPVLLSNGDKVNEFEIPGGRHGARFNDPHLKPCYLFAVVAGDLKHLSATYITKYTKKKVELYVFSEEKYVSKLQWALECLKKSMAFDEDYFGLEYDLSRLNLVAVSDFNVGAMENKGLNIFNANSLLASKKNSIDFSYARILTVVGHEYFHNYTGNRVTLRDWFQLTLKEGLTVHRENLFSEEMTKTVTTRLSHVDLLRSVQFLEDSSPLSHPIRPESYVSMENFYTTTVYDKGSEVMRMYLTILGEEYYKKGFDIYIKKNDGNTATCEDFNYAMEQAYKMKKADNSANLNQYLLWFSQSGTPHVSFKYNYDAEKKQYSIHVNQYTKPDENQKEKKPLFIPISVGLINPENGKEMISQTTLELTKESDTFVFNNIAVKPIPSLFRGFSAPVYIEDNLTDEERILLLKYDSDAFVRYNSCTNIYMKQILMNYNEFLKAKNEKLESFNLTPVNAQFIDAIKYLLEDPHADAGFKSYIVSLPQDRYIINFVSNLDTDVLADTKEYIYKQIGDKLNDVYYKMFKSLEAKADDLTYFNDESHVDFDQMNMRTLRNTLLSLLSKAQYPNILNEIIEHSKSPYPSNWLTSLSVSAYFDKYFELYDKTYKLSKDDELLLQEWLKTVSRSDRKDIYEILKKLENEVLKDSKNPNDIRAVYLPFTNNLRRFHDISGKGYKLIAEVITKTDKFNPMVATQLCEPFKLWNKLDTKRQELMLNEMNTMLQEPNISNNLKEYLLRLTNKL

[18] = system: Streptococcus sp. 'group A'; assay: growth inhibition of control SK(-) GAS strain, dose response, counter-screen for streptokinase expression inhibitor project, luminescence, kanamycin, BacTiterGlo, confirmation (AID 1900); type: functional, organism-based
[19] = target: T4, Streptokinase A (Streptococcus pyogenes serotype M1, UniProt P10520); assay: S. pyogenes streptokinase expression inhibitors, potency, dose response, plasminogen activation absorbance, OD405 (AID 1914); type: functional, Streptococcus pyogenes M1 GAS;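 note: secreted streptokinase activity via plasminogen activation per viability signal from cell pellet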
T4 sequence (P10520 whole entry): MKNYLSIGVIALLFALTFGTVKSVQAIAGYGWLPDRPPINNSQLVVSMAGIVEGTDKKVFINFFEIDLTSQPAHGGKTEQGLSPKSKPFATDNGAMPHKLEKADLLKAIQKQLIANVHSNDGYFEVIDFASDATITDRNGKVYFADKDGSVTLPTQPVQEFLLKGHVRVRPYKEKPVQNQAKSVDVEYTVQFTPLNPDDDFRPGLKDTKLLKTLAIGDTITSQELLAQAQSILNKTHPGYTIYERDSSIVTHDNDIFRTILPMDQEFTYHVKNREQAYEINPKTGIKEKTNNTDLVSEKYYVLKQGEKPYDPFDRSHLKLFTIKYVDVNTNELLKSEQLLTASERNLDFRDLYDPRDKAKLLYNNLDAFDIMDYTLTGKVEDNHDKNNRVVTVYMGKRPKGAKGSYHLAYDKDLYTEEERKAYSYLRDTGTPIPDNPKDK

[20] = cytotoxicity in HPDE-C7 cells, cell-based, fluorescence, HTS (AID 430); type: functional; conditions: Homo sapiens
[21] = cytotoxicity in KRAS-transformed pancreatic duct cells, primary screen, cell-based, fluorescence, HTS (AID 431); type: functional; conditions: Homo sapiens;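 note: cell line used: HPDE-C7K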
[22] = system: Streptococcus; assay: Group A Streptococcus viability loss, dose response, counter-screen for streptokinase expression inhibitor project, luminescence, BacTiterGlo (AID 1915); type: functional, organism-based;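 note: potency for reduction of bacterial viability or growth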
[23] = target: fMet-Leu-Phe receptor (Homo sapiens, UniProt P21462); assay: FPR ligands, dose response (AID 519); type: functional
[24] = target: Major prion protein (Homo sapiens, UniProt P04156); type: functional, cell-based
[25] = cells; remark: listed apart in the source
[26] = inhibitors of intracellular T. cruzi replication, confirmation, NIH3T3 host cells, beta-gal luminescence (AID 2044); type: functional, cell-based;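 note: intracellular parasites grown in NIH/3T3 mouse fibroblasts as host cells; luminescent beta-galactosidase reporter signal from transgenic T. cruzi replicating inside host cells; inhibitors lower the luminescence signal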
[27] = cytotoxicity toward NIH3T3 fibroblasts, dose response, counter-screen, cell-based, ATP luminescence, mouse fibroblasts (AID 2010); type: functional;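 note: cells exposed to compound for about 90 hours before reading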
[28] = target: Induced myeloid leukemia cell differentiation protein Mcl-1 (Homo sapiens, UniProt Q07820); type: functional

Which IC50 [1] does the source give for `O=C(Cc1ccccc1)NNC(=S)NC(=O)c1cccnc1` here?
The IC50 was > 94.1 µM (inactive).

For `CC1CN(C(NC(=O)C(C)(C)C)C(Cl)(Cl)Cl)CC(C)O1` (centres undefined), which AC50 [2] is on record?
The AC50 was 8.91 µM (inconclusive).

And the IC50 [3]?
Its IC50 is > 29.9 µM (inactive).

And the EC50 [4]?
The EC50 was 3.82 µM (active).

What about the IC50 [5] of the same molecule?
The IC50 was 21.6 µM (inactive).

What about the EC50 [6] of the same molecule?
The EC50 was > 29.9 µM (inactive).

What about the AC50 [7] of the same molecule?
Its AC50 is 14.1 µM (inconclusive).

What does the source list for `COc1ccc(C(=O)Nc2nnc(-c3cccs3)s2)cc1`?
AC50 [8]: 44.5 µM (active); AC50 [9]: 45.2 µM (active); AC50 [10]: 5.12 µM (active); AC50 [11]: 3.17 µM (active); EC50 [12]: > 67.5 µM (inactive); AC50 [13]: > 52 µM (inactive); EC50 [14]: > 67.5 µM (inactive)

What does the source list for `O=C(NC1=C(c2ccccc2)C(=O)c2ccccc2C1=O)c1ccc(Br)cc1`?
AC50 [15]: 45.8 µM (active); AC50 [16]: 22.9 µM (active)

With `CCCCCNC(=O)c1ccc2c(=O)[nH]c3c(C(=O)NCC4CCCO4)sc(=S)n3c2c1` (centres undefined) as the molecule, how does the IC50 [17] read?
The IC50 was 37 µM (active).

And the EC50 [18]?
The EC50 was 0.944 µM (active).

What about the EC50 [19] of the same molecule?
The EC50 was 21.1 µM (inconclusive).

And the EC50 [20]?
The EC50 was 17.6 µM (active).

And the EC50 [21]?
The EC50 was > 20 µM (not active).

And the EC50 [22]?
The EC50 was > 150 µM (not active).

And the Ki [23]?
Its Ki is 40.7 µM (inactive).

Which results are given for `O=C(NC1=C(c2ccccc2)C(=O)c2ccccc2C1=O)c1ccco1`?
AC50 [15]: 21.3 µM (active); AC50 [16]: 14.2 µM (active)

What does the source list for `Cc1cc(NC(=O)CSc2nc(CCC3CCCC3)nc3ccccc23)no1`?
IC50 [24]: 9.42 µM (active); IC50 [25]: > 138 µM (inactive)

With `CCc1nc(SCC(=O)NNC(=O)C(C)C)c2ccccc2n1` as the molecule, how does the IC50 [24] read?
The IC50 was 1.93 µM (active).

What about the IC50 [25] of the same molecule?
The IC50 was > 138 µM (inactive).

Which Ki [23] does the source give for `CCCC(=O)Nc1c2c(nn1-c1ccc(OC)cc1)C[S+]([O-])C2` (centres undefined) here?
The Ki was > 66.7 µM (inactive).

Which EC50 [26] does the source give for `CCc1nnc(S)n1/N=C/c1cc(OC)cc([N+](=O)[O-])c1O` here?
The EC50 was 0.815 µM (active).

And the EC50 [27]?
The EC50 was > 60 µM (not active).

What about the IC50 [28] of the same molecule?
Its IC50 is 12.4 µM (active).

And the IC50 [1]?
The IC50 was > 94.1 µM (inactive).
